Source: patent publication US5112805A, “Pharmaceutical preparation for promoting epithelial healing and prevention of epithelial destruction” (Labsystems, Oy, priority 1989, dated 1992)
“Also recorded” adds a separate entry of the source.

What was measured:
[1] = test system: proteolytic plasmin-like activity in tear fluid; test: Radial caseinolysis assay of tear fluid proteolytic activity with inhibitors added; format: biochemical, human
Method: (§1) Assay of proteolytic activity in tear fluids. Tear fluid was collected into a glass capillary. Proteolytic activity, using an 8 ul specimen of tear fluid, was measured by the radial caseinolysis procedure^23, using agarose gel and bovine milk casein as substrate. Human plasmin (20 casein units per mg; Kabi Diagnostica, Stockholm, Sweden) was used as standard. The results are expressed as micrograms of plasmin-like activity per milliliter tear fluid. Plasminogen activator levels were determined according to Saksela^23 using plasminogen-containing casein-agarose gels and urokinase (50 000 Plough units/ml; Calbiochem) as standard.
Proteinase inhibitors-Aprotinin (20 000 IU/ml Trasylol®, Bayer), L-cysteine (0.15M; E. Merck), heparin (2500 IU/ml Medica).

corneal lesions = test: Topical treatment of patients with corneal lesions, clinical response; format: in vivo, human; conditions: for clinical effect: used at first in patients 1, 3 and 4; for therapeutic effect: patient with bilateral acid corrosion
Method: Patients and control individuals. All patients reported here were treated in the Eye Clinic of the Helsinki Central University Hospital.
(§2) Proteinase inhibitor and fibronectin treatment. The patients received topical aprotinin (20 or 40 IU/ml), diluted from the stock preparation in sterile saline or commercially obtained wetting agent (Liquifilm Tears; Allergan), 1-2 drops (50 ul each) at 3 hour intervals. When applied, fibronectin (200 ug/ml) was administered 2-3 minutes after aprotinin treatment, also using 1-2 drops at a time.
After the success with this index case and similar experience with the first few additional patients the following therapeutic regimen was adopted. Patients with corneal ulcers were first treated for four days with conventional therapy including antimicrobial drugs according to laboratory findings or clinical picture. If no response was seen and if proteolytic activity was detected in the tear fluid, aprotinin therapy was initiated. In some cases with low activity in the initial or later tear fluid specimens, aprotinin was combined with topical fibronectin. In addition, in certain patients, such as in a patient with bilateral acid corrosion, no proteolytic activity was detected immediately after injury. […] In zymographic analysis the proteinase in the patient's tear fluid specimen comigrated with plasmin (data not shown). […] This patient will be described in detail elsewhere. However, a large proportion of patients with therapy-resistant corneal lesions of various categories (Table 2) had proteolytic activity and the above regimen was followed.

epithelium = conditions: published report on clinical use of fibronectin; cited from earlier work
[2] = test system: tear fluid plasmin-like activity; test: Tear fluid plasmin-like activity of patients during therapy; format: in vivo, human
Method: as §1, §2

[3] = Side effects of aprotinin eye drops in patients; format: in vivo, human
Method: as §2

[4] = Patient 1 tear fluid (11.6 without inhibitor), aprotinin 20 IU/ml, L-cysteine 0.075 M, heparin 1250 IU/ml
[5] = Patient 2 tear fluid (7.0 without inhibitor), aprotinin 20 IU/ml, L-cysteine 0.075 M, heparin 1250 IU/ml
[6] = Patient 8 tear fluid (6.0 without inhibitor), aprotinin 10 IU/ml, L-cysteine 0.075 M, heparin 1250 IU/ml
[7] = Patient 9 tear fluid (6.3 without inhibitor), aprotinin 10 IU/ml, L-cysteine 0.075 M, heparin 1250 IU/ml
[8] = tear fluid of patients 1, 2, 8 and 9 in vitro
[9] = tear fluids of patients with corneal lesions, in the assay

`N[C@@H](CS)C(=O)O` [L-cysteine] gave a Proteolytic plasmin-like activity [1, 4] of 10.1 µg/mL, a Proteolytic plasmin-like activity [1, 5] of 7.2 µg/mL and a Proteolytic plasmin-like activity [1, 6] of 4.9 µg/mL. The Proteolytic plasmin-like activity [1, 7] was 5.5 µg/mL, the “effect on the proteolytic activity of tear fluid” value (“effect … of tear fluid” below) [1, 8] was “very little effect” and the “effect … of tear fluid” value [1, 9] was “minimal inhibitory effect”. The “course of cornea during therapy” value (corneal lesions; patient 4, topical L-cysteine therapy, no detectable microbial pathogens) was “perforated spontaneously” and the clinical effect (corneal lesions) was “little or no clinical effect”.
For fibronectin, the “appearance of corneal erosion” value (corneal lesions; patient 1, topical fibronectin alone from Oct. 16, one day later) was “altered appearance”, the therapeutic effect (corneal lesions; left eye, fibronectin applied 7 days later, tear fluid with plasmin-like activity) was “no such therapeutic effect was observed” and the therapeutic effect (corneal lesions; right eye, initial topical fibronectin, no proteolytic activity detected) was “clear beneficial effect and epithelial healing”. The “time to healing of the epithelium” value (epithelium) was “about 20 days”.
In the case of aprotinin, the Proteolytic plasmin-like activity [1, 4] is reported as under 0.1 µg/mL, the Proteolytic plasmin-like activity [1, 5] is reported as under 0.1 µg/mL and the Proteolytic plasmin-like activity ([1]; Patient 7 tear fluid (7.6 without inhibitor), aprotinin 10 IU/ml) is reported as under 0.1 µg/mL. The Proteolytic plasmin-like activity [1, 6] was under 0.1 µg/mL, the Proteolytic plasmin-like activity [1, 7] was under 0.1 µg/mL and the Proteolytic plasmin-like activity ([1]; Patient 15 tear fluid (4.2 without inhibitor), aprotinin 10 IU/ml) was under 0.1 µg/mL. The “effect … of tear fluid” value [1, 9] was “can be inhibited”, the “effect … of tear fluid” value ([1]; tear fluids of patients with corneal lesions, in the assay, listed as Aprotinin) was “inhibit effectively” and the response to therapy (corneal lesions; all fifteen patients with proteolytic activity in tear fluid and corneal lesion, aprotinin, in some cases combined with fibronectin) was “resulted in corneal epithelialization; also recorded: responded quickly”. For the same compound, the time to response (corneal lesions; patient 1, novel therapy (aprotinin with fibronectin), after nine weeks of unsuccessful conventional treatment) was at most 24 h, the “Recovery in” value (corneal lesions; patient 2, disciform keratitis, recurrent erosion for 1 week) was 4 days and the clinical response (corneal lesions; patient 3, corneal erosion caused by soft contact lens, proteinase inhibitor therapy) was “improved rapidly”. For the same compound, the “Complete epithelialization in” value (corneal lesions; patient 3, soft contact lens user, recurrent corneal erosion) was 48 h, the clinical response (corneal lesions; patient 4, corneal perforation, soft contact lens and antibiotics together with aprotinin) was “led to healing” and the “duration of corneal healing” value (corneal lesions; patient 4, keratitis sicca, corneal perforation and ulcer) was “six”. For the same compound, the clinical response (corneal lesions; patient 7, Mooren's ulcer, 20 IU/ml, later (20 Jan on) 40 IU/ml hourly) was “successfully treated”, the “ulcer area relative to original area” value (corneal lesions; patient 7, Mooren's ulcer, within a month after onset of aprotinin therapy) was “regressed into a third of its original area” and the “complete healing in” value (corneal lesions; patient 8, ulcus corneae, S. aureus, after onset of aprotinin) was 12 days. For the same compound, the epithelialization (corneal lesions; patient 9, deep corneal ulcer, topical antibiotics and aprotinin) was “rapid”, the “epithelialization in” value (corneal lesions; patient 10, giant papillary conjunctivitis) was “one” and the “Complete epithelialization in” value (corneal lesions; patient 12, absc. corneae, Moraxella, antibiotics and aprotinin) was 2 weeks. The response to therapy (corneal lesions; patient 13, herpes keratitis, new erosion, with topical acyclovir, antibiotics) was “clear improvement”, the “condition improved in” value (corneal lesions; patient 14, blepharitis chronica) was 1 week and the “condition improved in” value (corneal lesions; patient 15, conjunctivitis vernalis, punctate erosion) was 5 days. For the same compound, the therapeutic effect (corneal lesions; aprotinin therapy after failure of fibronectin) was “rapid epithelization”, the Tearfluid plasmin-like activity ([2]; patient 2, 25 Nov, 7.0 on 1 Nov) was under 0.1 µg/mL and the Tearfluid plasmin-like activity ([2]; patient 3, 4 Dec, 6.8 on 16 Nov) was under 0.1 µg/mL. It also gave a Tearfluid plasmin-like activity ([2]; patient 4, 20 Dec, 5.5 on 25 Nov) of under 0.1 µg/mL, a Tearfluid plasmin-like activity ([2]; patient 7, 10 Jan, 7.6 on 8 Jan, aprotinin 20 IU/ml from Jan 8) of 4.7 µg/mL and a Tearfluid plasmin-like activity ([2]; patient 7, 16 Jan, aprotinin 20 IU/ml from Jan 8) of 12.0 µg/mL. The Tearfluid plasmin-like activity ([2]; patient 7, 20 Jan, aprotinin 20 IU/ml from Jan 8) was 12.5 µg/mL, the Tearfluid plasmin-like activity ([2]; patient 7, 22 Jan, aprotinin 40 IU/ml hourly from 20 Jan, fibronectin added Jan 22) was 3.3 µg/mL and the Tearfluid plasmin-like activity ([2]; patient 8, 14 Feb) was under 0.1 µg/mL. It also gave a Tearfluid plasmin-like activity ([2]; patient 8, 29 Jan, 6.0 on 6 Jan, 4.5 on 8 Jan during antibiotic therapy) of 0.5 µg/mL, a Tearfluid plasmin-like activity ([2]; patient 8, 31 Jan) of 0.5 µg/mL and a Tearfluid plasmin-like activity ([2]; patient 9, 13 Feb) of under 0.1 µg/mL. It also gave a Tearfluid plasmin-like activity ([2]; patient 9, 20 Jan, 6.3 on 16 Jan, with topical antibiotics) of 3.0 µg/mL, a Tearfluid plasmin-like activity ([2]; patient 9, 30 Jan) of under 0.1 µg/mL and a Tearfluid plasmin-like activity ([2]; patient 10, 22 Jan, 10.3 on 20 Jan) of 2.4 µg/mL. It also gave a Tearfluid plasmin-like activity ([2]; patient 10, 24 Jan) of under 0.1 µg/mL, a Tearfluid plasmin-like activity ([2]; patient 11, 9 Feb) of under 0.1 µg/mL and a Tearfluid plasmin-like activity ([2]; patient 11, 30 Jan, 3.1 on 21 Jan) of 1.9 µg/mL. It also gave a Tearfluid plasmin-like activity ([2]; patient 12, 6 Feb) of under 0.1 µg/mL, a Tearfluid plasmin-like activity ([2]; patient 12, 24 Jan, 20.0 on 22 Jan, with antibiotics) of 12.4 µg/mL and a Tearfluid plasmin-like activity ([2]; patient 13, 3 Feb, 6.3 on 31 Jan, with topical acyclovir, antibiotics) of 0.5 µg/mL. The Tearfluid plasmin-like activity ([2]; patient 13, 19 Feb) was under 0.1 µg/mL, the “outcome and complications of longest treatment” value ([3]; aprotinin eye drops, patient 4 (dry eyes, spontaneous perforation), five weeks) was “good results without corneal or other complications” and the side effects ([3]; topical aprotinin therapy, patients) was “No side effects”.
heparin gave a Proteolytic plasmin-like activity [1, 4] of 11.9 µg/mL, a Proteolytic plasmin-like activity [1, 5] of 7.8 µg/mL and a Proteolytic plasmin-like activity [1, 6] of 7.2 µg/mL. The Proteolytic plasmin-like activity [1, 7] was 6.8 µg/mL, the “effect … of tear fluid” value [1, 8] was “very little effect” and the “effect … of tear fluid” value [1, 9] was “no effect”. The clinical effect (corneal lesions) was “little or no clinical effect”.
